According to patent US11479556B1, “Bifunctional compounds for degrading BTK via ubiquitin proteosome pathway” (NURIX THERAPEUTICS, INC., priority 2018, dated 2022):

target: T1, BTK (Homo sapiens, UniProt Q06187); assay: Cellular BTK HTRF assay (BTK degradation) in TMD8 cells; format: cell-based; conditions: four hours incubation, Total-BTK HTRF relative to DMSO-treated cells
T1 construct: endogenous in cells; host or cells: TMD8 cells
Method: Example 66: BTK Degradation Assay
TMD8 cells were obtained from Tokyo Medical and Dental University and were grown in alpha-MEM (Fisher 12571063) supplemented with 10% heat-inactivated FBS (Corning Premium Fetal Bovine Serum from Fisher, MT35015CV).
Compounds of the present invention were added to 50,000 TMD8 cells in round-bottom 96 well plates with a final DMSO concentration of […] and were incubated at 37° C. 5% CO2 for four hours. BTK levels were determined using Cisbio Total-BTK HTRF ([…] Time-Resolved Fluorescence) kit (63ADK064PEG) according to manufacturer's protocol. Briefly, cells were incubated in 1× supplied lysis buffer for 30 minutes. In an opaque white low volume 96 well plate (Cisbio, 66PL96005), cell lysate was combined with two different specific BTK antibodies, one conjugated with Eu^3+-Cryptate FRET donor and one conjugated with d2 FRET acceptor. Assay controls include wells containing cell lysate with only the Eu^3+-Cryptate FRET donor antibody and wells containing both HTRF antibodies and lysis buffer without cells or control lysate provided by Cisbio. HTRF ratio was calculated as (acceptor signal at 665 nm/donor signal at 620 nm)×10^4. Background HTRF levels were determined from the control well containing the donor, but no acceptor, antibody. Background HTRF levels were subtracted from all samples. Readouts were reported as HTRF levels relative to HTRF levels of DMSO-treated cells. Four-parameter non-linear regressions were performed in GraphPad Prism 7.02 to obtain DC50 values. DC50 values are provided in Table 3, wherein A<5.0 nM, 5.0 nM≤B≤15 nM, and 15 nM<C.

T1 sequence (Q06187 whole entry): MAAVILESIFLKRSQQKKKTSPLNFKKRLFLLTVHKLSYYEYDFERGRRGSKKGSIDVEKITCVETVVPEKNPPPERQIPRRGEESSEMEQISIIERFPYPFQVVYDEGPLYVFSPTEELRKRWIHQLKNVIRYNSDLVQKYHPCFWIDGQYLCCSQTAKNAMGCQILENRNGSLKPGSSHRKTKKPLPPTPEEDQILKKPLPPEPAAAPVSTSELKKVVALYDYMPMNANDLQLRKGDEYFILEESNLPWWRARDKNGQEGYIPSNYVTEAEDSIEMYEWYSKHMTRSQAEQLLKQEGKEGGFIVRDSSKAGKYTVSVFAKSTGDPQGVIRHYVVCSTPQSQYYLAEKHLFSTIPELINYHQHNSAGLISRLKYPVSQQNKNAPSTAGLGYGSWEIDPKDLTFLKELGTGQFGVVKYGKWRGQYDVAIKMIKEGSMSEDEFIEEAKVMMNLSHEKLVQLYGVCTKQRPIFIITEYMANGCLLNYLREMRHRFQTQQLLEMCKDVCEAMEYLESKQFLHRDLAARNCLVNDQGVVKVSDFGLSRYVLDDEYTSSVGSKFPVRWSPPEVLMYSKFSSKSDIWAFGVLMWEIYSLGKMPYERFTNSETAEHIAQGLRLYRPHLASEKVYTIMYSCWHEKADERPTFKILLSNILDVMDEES

Row | SMILES | DC50 [nM]
1 | CN1CCN([C@@H]2CCCN(c3cnc(C(N)=O)c(Nc4ccc(C5CCN(C(=O)CCCCc6cccc7c6CN(C6CCC(=O)NC6=O)C7=O)CC5)cc4)n3)C2)C1=O (stereo partly drawn) [Compound 23] | 5 to 15
2 | CN1CCN([C@@H]2CCCN(c3cnc(C(N)=O)c(Nc4ccc(C5CCN(C(=O)CCOCCOCCOCCNc6cccc7c6C(=O)N(C6CCC(=O)NC6=O)C7=O)CC5)cc4)n3)C2)C1=O (stereo partly drawn) [Compound 24] | 5 to 15
3 | CN1CCN([C@@H]2CCCN(c3cnc(C(N)=O)c(Nc4ccc(C5(C)CCN(C(=O)CCCCc6cccc7c6CN(C6CCC(=O)NC6=O)C7=O)CC5)cc4)n3)C2)C1=O (stereo partly drawn) [Compound 26] | 5 to 15
4 | CN1CCN([C@@H]2CCCN(c3cnc(C(N)=O)c(Nc4ccc(C5(C)CCN(C(=O)CCOCCOCCOCCNc6cccc7c6C(=O)N(C6CCC(=O)NC6=O)C7=O)CC5)cc4)n3)C2)C1=O (stereo partly drawn) [Compound 27] | 5 to 15
5 | CN1CCN([C@@H]2CCCN(c3cnc(C(N)=O)c(Nc4ccc(C5(C)CCN(C(=O)CCOCCNc6cccc7c6C(=O)N(C6CCC(=O)NC6=O)C7=O)CC5)cc4)n3)C2)C1=O (stereo partly drawn) [Compound 28] | 5 to 15
6 | CN1CCN([C@@H]2CCCN(c3cnc(C(N)=O)c(Nc4ccc(C5CCN(C[C@@H]6CCCN(c7ccc8c(c7)C(=O)N(C7CCC(=O)NC7=O)C8=O)C6)CC5)cc4)n3)C2)C1=O (stereo partly drawn) [Compound 32, 3-((4-(1-(((3S)-1-(2-(2,6-dioxopiperidin-3-yl)-1,3-dioxoisoindolin-5-yl)piperidin-3-yl)methyl)piperidin-4-yl)phenyl)amino)-5-((R)-3-(3-methyl-2-oxoimidazolidin-1-yl)piperidin-1-yl)pyrazine-2-carboxamide] | < 5
7 | CN1CCN([C@@H]2CCCN(c3cnc(C(N)=O)c(Nc4ccc(N5CC6(CN(CCCc7cccc8c7CN(C7CCC(=O)NC7=O)C8=O)C6)C5)cc4)n3)C2)C1=O (stereo partly drawn) [Compound 33] | < 5
8 | CN1CCN([C@@H]2CCCN(c3cnc(C(N)=O)c(Nc4ccc(N5CCN(CCC6CCN(c7ccc8c(c7)C(=O)N(C7CCC(=O)NC7=O)C8=O)CC6)CC5)cc4)n3)C2)C1=O (stereo partly drawn) [Compound 40] | < 5
9 | CN1CCN([C@@H]2CCCN(c3cnc(C(N)=O)c(Nc4ccc(C5CCN(CCC6CCN(c7ccc8c(c7)C(=O)N(C7CCC(=O)NC7=O)C8=O)CC6)CC5)cc4)n3)C2)C1=O (stereo partly drawn) [Compound 41] | < 5
10 | CN1CCN([C@@H]2CCCN(c3cnc(C(N)=O)c(Nc4ccc(N5CCN(CCC6CN(c7ccc8c(c7)C(=O)N(C7CCC(=O)NC7=O)C8=O)C6)CC5)cc4)n3)C2)C1=O (stereo partly drawn) [Compound 43] | < 5
11 | CN1CCN([C@@H]2CCCN(c3cnc(C(N)=O)c(Nc4ccc(C5CCN(CCC6CN(c7ccc8c(c7)C(=O)N(C7CCC(=O)NC7=O)C8=O)C6)CC5)cc4)n3)C2)C1=O (stereo partly drawn) [Compound 45] | < 5
12 | CN1CCN([C@@H]2CCCN(c3cnc(C(N)=O)c(Nc4ccc(N5CCN(C[C@@H]6CCCN(c7ccc8c(c7)C(=O)N(C7CCC(=O)NC7=O)C8=O)C6)CC5)cc4)n3)C2)C1=O (stereo partly drawn) [Compound 46] | < 5
13 | CN1CCN([C@@H]2CCCN(c3cnc(C(N)=O)c(Nc4ccc(N5CCN(C[C@H]6CCCN(c7ccc8c(c7)C(=O)N(C7CCC(=O)NC7=O)C8=O)C6)CC5)cc4)n3)C2)C1=O (stereo partly drawn) [Compound 48] | < 5
14 | CN1CCN([C@@H]2CCCN(c3cnc(C(N)=O)c(Nc4ccc(C5CCN(C[C@H]6CCCN(c7ccc8c(c7)C(=O)N(C7CCC(=O)NC7=O)C8=O)C6)CC5)cc4)n3)C2)C1=O (stereo partly drawn) [Compound 50] | < 5
15 | CN1CCN([C@@H]2CCCN(c3cnc(C(N)=O)c(Nc4ccc(N5CCC6(CC5)CCN(c5ccc7c(c5)C(=O)N(C5CCC(=O)NC5=O)C7=O)CC6)cc4)n3)C2)C1=O (stereo partly drawn) [Compound 55] | < 5
16 | CN1CCN([C@@H]2CCCN(c3cnc(C(N)=O)c(Nc4ccc(N5CCC6(CCN(CCCCc7cccc8c7CN(C7CCC(=O)NC7=O)C8=O)CC6)CC5)cc4)n3)C2)C1=O (stereo partly drawn) [Compound 56] | < 5
17 | CN1CCN([C@@H]2CCCN(c3cnc(C(N)=O)c(Nc4ccc(N5CCC6(CCN(C(=O)CCOCCCc7cccc8c7CN(C7CCC(=O)NC7=O)C8=O)CC6)CC5)cc4)n3)C2)C1=O (stereo partly drawn) [Compound 57, 3-((4-(9-(3-(3-(2-(2,6-dioxopiperidin-3-yl)-1-oxoisoindolin-4-yl)propoxy)propanoyl)-3,9-diazaspiro[5.5]undecan-3-yl)phenyl)amino)-5-((R)-3-(3-methyl-2-oxoimidazolidin-1-yl)piperidin-1-yl)pyrazine-2-carboxamide] | < 5
18 | CN1CCN([C@@H]2CCCN(c3cnc(C(N)=O)c(Nc4ccc(N5CCN(C[C@@H]6CCN(c7ccc8c(c7)C(=O)N(C7CCC(=O)NC7=O)C8=O)C6)CC5)cc4)n3)C2)C1=O (stereo partly drawn) [Compound 59] | < 5
19 | CN1CCN([C@@H]2CCCN(c3cnc(C(N)=O)c(Nc4cccc(NC(=O)CCCN5CCN(c6ccc7c(c6)C(=O)N(C6CCC(=O)NC6=O)C7=O)CC5)c4)n3)C2)C1=O (stereo partly drawn) [Compound 62] | > 15
20 | CN1CCN([C@@H]2CCCN(c3cnc(C(N)=O)c(Nc4ccc(C5(C)CCN(C6CC(Nc7cccc8c7C(=O)N(C7CCC(=O)NC7=O)C8=O)C6)CC5)cc4)n3)C2)C1=O (stereo partly drawn) [Compound 66] | < 5
21 | CN1CCN([C@@H]2CCCN(c3cnc(C(N)=O)c(Nc4ccc(C5CN(CC6CCN(c7ccc8c(=O)n(C9CCC(=O)NC9=O)ccc8c7)CC6)C5)cc4)n3)C2)C1=O (stereo partly drawn) [Compound 69] | < 5
22 | CN1CCN([C@@H]2CCCN(c3cnc(C(N)=O)c(Nc4ccc(N5CC6CN(Cc7ccc8c(c7)C(=O)N(C7CCC(=O)NC7=O)C8=O)CC6C5)cc4)n3)C2)C1=O (stereo partly drawn) [Compound 76] | 5 to 15
23 | CN1CCN([C@H]2CCCN(c3cnc(C(N)=O)c(Nc4cnn(C5CCN(C6CCN(c7ccc8c(c7)C(=O)N(C7CCC(=O)NC7=O)C8=O)CC6)CC5)c4)n3)C2)C1=O (stereo partly drawn) [Compound 77] | < 5
24 | CN1CCN([C@H]2CCCN(c3cnc(C(N)=O)c(Nc4ccc(N5CC6CN(c7ccc8c(c7)C(=O)N(C7CCC(=O)NC7=O)C8=O)CC6C5)cc4)n3)C2)C1=O (stereo partly drawn) [Compound 79] | > 15

Results, then the compound that gave them:

Row | DC50 [nM] | SMILES
25 | < 5 | CN1CCN([C@@H]2CCCN(c3cnc(C(N)=O)c(Nc4ccc(C5CN(C[C@H]6CCN(c7ccc8c(c7)C(=O)N(C7CCC(=O)NC7=O)C8=O)C6)C5)cc4)n3)C2)C1=O (stereo partly drawn) [Compound 35]
26 | 5 to 15 | CN1CCN([C@@H]2CCCN(c3cnc(C(N)=O)c(Nc4ccc(C5CN(CCCCc6cccc7c6CN(C6CCC(=O)NC6=O)C7=O)C5)cc4)n3)C2)C1=O (stereo partly drawn) [Compound 36]
27 | < 5 | CN1CCN([C@@H]2CCCN(c3cnc(C(N)=O)c(Nc4ccc(C5CCN(C[C@@H]6[C@H]7CN(c8ccc9c(c8)C(=O)N(C8CCC(=O)NC8=O)C9=O)C[C@@H]67)CC5)cc4)n3)C2)C1=O (stereo partly drawn) [Compound 39]
28 | < 5 | CN1CCN([C@@H]2CCCN(c3cnc(C(N)=O)c(Nc4ccc(N5CCN(C[C@H]6CCN(c7ccc8c(c7)C(=O)N(C7CCC(=O)NC7=O)C8=O)C6)CC5)cc4)n3)C2)C1=O (stereo partly drawn) [Compound 42]
29 | < 5 | CN1CCN([C@@H]2CCCN(c3cnc(C(N)=O)c(Nc4ccc(C5CCN(c6ccc7c(c6)C(=O)N(C6CCC(=O)NC6=O)C7=O)CC5)cc4)n3)C2)C1=O (stereo partly drawn) [Compound 47]
30 | < 5 | CN1CCN([C@@H]2CCCN(c3cnc(C(N)=O)c(Nc4ccc(N5CCN(CC6CCN(c7ccc8c(c7)C(=O)N(C7CCC(=O)NC7=O)C8=O)CC6)CC5)cc4)n3)C2)C1=O (stereo partly drawn) [Compound 49]
31 | < 5 | CN1CCN([C@@H]2CCCN(c3cnc(C(N)=O)c(Nc4ccc(C5CCN(C[C@@H]6CCN(c7ccc8c(c7)C(=O)N(C7CCC(=O)NC7=O)C8=O)C6)CC5)cc4)n3)C2)C1=O (stereo partly drawn) [Compound 52]
32 | < 5 | CN1CCN([C@@H]2CCCN(c3cnc(C(N)=O)c(Nc4ccc(C5CCN(CC6CN(c7ccc8c(c7)C(=O)N(C7CCC(=O)NC7=O)C8=O)C6)CC5)cc4)n3)C2)C1=O (stereo partly drawn) [Compound 54]
33 | 5 to 15 | CN1CCN([C@@H]2CCCN(c3cnc(C(N)=O)c(Nc4ccc(C5(C)CCN(c6ccc7c(c6)C(=O)N(C6CCC(=O)NC6=O)C7=O)CC5)cc4)n3)C2)C1=O (stereo partly drawn) [Compound 58]
34 | < 5 | CN1CCN([C@@H]2CCCN(c3cnc(C(N)=O)c(Nc4ccc(N5CCN(CC6CN(c7ccc8c(c7)C(=O)N(C7CCC(=O)NC7=O)C8=O)C6)CC5)cc4)n3)C2)C1=O (stereo partly drawn) [Compound 60]
35 | > 15 | CN1CCN([C@@H]2CCCN(c3cnc(C(N)=O)c(Nc4cccc(NC(=O)[C@H]5C[C@@H](OCCCc6cccc7c6C(=O)N(C6CCC(=O)NC6=O)C7=O)C5)c4)n3)C2)C1=O (stereo partly drawn) [Compound 63]
36 | > 15 | CN1CCN([C@@H]2CCCN(c3cnc(C(N)=O)c(Nc4ccc(CCCNc5ccc6c(c5)C(=O)N(C5CCC(=O)NC5=O)C6=O)cc4)n3)C2)C1=O (stereo partly drawn) [Compound 65]
37 | > 15 | NC(=O)c1ncc(N2CCCCC2)nc1Nc1ccc(N2CCN(C(=O)CCOCCCc3cccc4c3CN(C3CCC(=O)NC3=O)C4=O)CC2)cc1 (stereo not drawn) [Compound 67]
38 | < 5 | CN1CCN([C@H]2CCCN(c3cnc(C(N)=O)c(Nc4ccc(N5CCC6(CCN(c7ccc8c(c7)C(=O)N(C7CCC(=O)NC7=O)C8=O)CC6)CC5)nc4)n3)C2)C1=O (stereo partly drawn) [Compound 80]
39 | > 15 | CN1CCN([C@H]2CCCN(c3cnc(C(N)=O)c(Nc4ccc(N5CCC6(CC5)CCN(c5ccc7c(c5)C(=O)N(C5CCC(=O)NC5=O)C7=O)CC6)cn4)n3)C2)C1=O (stereo partly drawn) [Compound 81]
